The subject of one test is T cells (CD3+). The experiment in a line: GVHD mouse model, LiCl treatment of allogeneic mice, CD3+ T cells of spleen counted by flow cytometry. As to conditions: 2.0 mg/kg LiCl once a day, day 3 post-transplant. In kind it is in vivo. How it is done: Mice are divided into 3 groups (Untreated, Syngeneic and Allogeneic) per time point with 6-12 mice per group. The untreated group mice (without irradiation) were injected with plain medium. The syngeneic group irradiated (600 rads) Balb/c mice were injected with splenocytes (30×10̂6) from matched donor Balb/c mice. The allogeneic group irradiated (600 rads) Balb/c mice were injected with splenocytes (30×10̂6) from unmatched donor C57Bl/6 mice. An additional 2-3 mice in each group were injected with 2.0 mg/kg LiCl (dissolved 1:2 LiCl:PBS), once a day from day 1 to day 5 post-transplant, sacrificed at days 3 and 5.
Total T cells (CD3+) were collected from spleens of mice of the 3 groups of the GVHD model as described above. Cells were stained for CD3 and counted by Flow Cytometry.
In order to explore the effect of GSK-3β activation state on T-cell proliferation, the GVHD model mice were treated with Lithium chloride (LiCl). Lithium chloride (LiCl) is known to affect GSK-3β activation state by regulating its phosphorylation state. Lithium chloride (LiCl) treatments were given to a separate group of allogeneic mice.
(In general: In flow cytometry, cells or beads pass a laser one at a time.)

In test [1] the test system is C57Bl/6 and Balb/c splenocytes. The experiment in a line: Mixed lymphocyte reaction, XTT proliferation assay. Particulars: for proliferation level: versus control (0 mM). It is filed as cell-based, mouse. The method, then: Splenocytes were harvested from untreated Balb/c and C57BL/6 mice. C57BL/6 cells were incubated in a flat bottom 96 well plate for 96 h with either irradiated (1500 rads) or not irradiated Balb/c cells as indicated, at the indicated concentrations. XTT reagent for proliferation assay was added 24 h before reading. Plate was read at 620 nm.
Splenocytes were collected from spleens of C57Bl/6 and Balb/c mice and cultured ex-vivo and assayed for proliferation by XTT (tetrazolium salt). The C57Bl/6 and Balb/c cells were cultured ex-vivo together to mimic a GVHD reaction. The cells were cultured in 3 groups, having different cell concentrations: • 2×2: 2×10̂5 C57Bl/6 and 2×10̂5 balb/c cells • 1×1: 1×10̂5 C57Bl/6 and 1×10̂5 balb/c cells • 2×*2: 2×10̂5 C57Bl/6 and 2×10̂5 irradiated balb/c cells
In order to test the effect of GSK-3β activation state on cell proliferation, Lithium Chloride (a known inhibitor of GSK-3β) was added at different concentrations. […] Furthermore, it can be seen that the effect of LiCl depends on the confluence (concentration) of cells.

Results on one compound are retold here after patent US20150099645A1, “MEANS AND METHODS FOR DIAGNOSTICS AND TH[…] DISEASES” (priority 2012, published 2015).

In the case of `[Cl-].[Li+]` [LiCl, Lithium chloride], the “amount of T-cells” value in the test with T cells (CD3+) is given as “increased”. In addition, the proliferation level entry in test [1] (12.5 mM LiCl, 2×2 group (2×10^5 C57Bl/6 and 2×10^5 balb/c cells)) is “significantly lower”; in test [1] (25 mM LiCl, 1×1 group (1×10^5 C57Bl/6 and 1×10^5 balb/c cells)) it was “significantly higher”; in test [1] (25 mM LiCl, 2×2 group) it was “significantly higher”. The effect on proliferation result in test [1] (doses smaller than 12.5 mM) is “no apparent effect”.
